Experiments:
[1] = test system: interleukin-1 beta (IL-1β) release (production) by human peripheral blood monocyte-derived macrophages; experiment: Endotoxin-Induced Interleukin-1 Beta Release by Human Macrophages; type: cell-based; settings: Macrophage, endotoxin 20 ng/mL (Salmonella typhimurium, Re-mutant), compound 1 h before stimulation, supernatant at 24 h, ELISA
Experimental: Endotoxin-Induced Interleukin-1 Beta Release by Human Macrophages The objective of this test is to determine the inhibitory concentrations for the test compounds against endotoxin-induced interleukin-1 beta (IL-1β) release (production) by human peripheral blood monocyte-derived macrophages. The source of the human peripheral blood monocyte-derived macrophages is as follows: Venous blood is collected from healthy volunteers in 10 mM sodium citrate (2 mL sterile sodium citrate for 40 mL blood). Mononuclear cells are isolated with the Leucoprep tubes (Becton Dickenson, product number 2752 or 2751) spun at 1500 g for 15 minutes. Aliquots of 3×10^6 mononuclear cells are added to 24-well tissue culture plates (Corning) in RPMI-1640. After one hour incubation at 37° C., non-adherent cells are gently rinsed off. The adherent cells (macrophages) are given back fresh medium RPMI-1640, 1 mL/well. Macrophage monolayer cultures are pretreated with compounds one hour prior to endotoxin (20 ng/mL, Salmonella typhimurium, Re-mutant, from Ribi Immuchem.) stimulation. Compounds dissolved in 95% ethanol or DMSO would require additional monolayer cultures treated with 10 or 2.5 μl 95% ethanol or DMSO, respectively. Culture supernatants are collected 24 hours later and are tested for IL-1β using a commercial ELISA kit (Cistron). The IL-1β concentration in the culture supernatant is calculated by a standard curve generated from a series of known concentrations. Potency of compound is reported in IC50 (μM).

[2] = Interleukin-1-Beta-Induced Tumor Necrosis Factor Alpha Release by Human Macrophages; type: cell-based; settings: Macrophage; TNF-α release; recombinant human IL-1β 20 ng/mL; compound 1 h before stimulation; supernatant at 24 h; ELISA
From the text: Interleukin-1-Beta-Induced Tumor Necrosis Factor Alpha Release by Human Macrophages
To determine the inhibitory concentrations for the test compounds against interleukin-1 beta (IL-1β)-induced tumor necrosis factor alpha (TNFα) release by human peripheral blood monocyte-derived macrophages. It should be understood that this is a test of the ability of the test compounds to modulate, i.e. inhibit, the activity of IL-1β by measuring the inhibition of IL-1β induced release of TNFα.
Source Human peripheral blood monocyte-derived macrophages:
Venous blood is collected form healthy volunteers in 10 mM sodium citrate (2 mL sterile sodium citrate for 40 mL blood). Mononuclear cells are isolated with the Leucoprep tubes (Becton Dickinson, product number 2752 or 2751) spun at 1500 g for fifteen minutes. Aliquots of 3×10^6 mononuclear cells are added to 24-well tissue culture plates (Corning) in RPMI-1640. After 1 hour incubation at 37° C., non-adherent cells are gently rinsed off. The adherent cells (macrophages) are given back fresh medium RPMI-1640, 1 mL/well.
Macrophage monolayer cultures are pretreated with compounds one hour prior to IL-1β (20 ng/mL, recombinant human IL-1β) stimulation. Compounds dissolved in 95% ethanol or DMSO would require additional monolayer cultures treated with 10 or 2.5 μl 95% ethanol or DMSO, respectively. Culture supernatants are collected 24 hours later and are tested for TNF-α using a commercial ELISA kit (Cistron).
The TNF-α concentration in the culture supernatant is calculated by a standard curve generated from a series of known concentrations. Potency of compound is reported in IC50 (μM).

Structure (SMILES)	IC50 [1]	IC50 [2]
COC(=O)c1cc(=NS(=O)(=O)c2ccccc2)c2ccccc2o1 [4-[Benzenesulfonylimino]-4H-chromene-2-carboxylic acid, methyl ester]	3000 nM	2000 nM
CCCCOC(=O)c1cc(=NS(=O)(=O)c2ccccc2)c2c(Cl)cc(Cl)cc2[nH]1 [5,7-Dichloro-4-[benzenesulfonylimino]-1,4-dihydroquinoline-2-carboxylic acid, butyl ester]	3000 nM	5000 nM
CCOC(=O)c1cc(=NS(=O)(=O)c2ccccc2)c2c(Cl)cc(Cl)cc2[nH]1 [5,7-Dichloro-4-[benzenesulfonylimino]-1,4-dihydroquinoline-2-carboxylic acid, ethyl ester]	2000 nM	3000 nM
COC(=O)c1cc(=NS(=O)(=O)c2ccccc2)c2c(Cl)cc(Cl)cc2[nH]1 [5,7-Dichloro-4-[benzenesulfonylimino]-1,4-dihydroquinoline-2-carboxylic acid, methyl ester]	6000 nM	3000 nM
CNC(=O)c1cc(=NS(=O)(=O)c2ccccc2)c2c(Cl)cc(Cl)cc2[nH]1 [5,7-Dichloro-4-[benzenesulfonylimino]-1,4-dihydroquinoline-2-carboxylic acid-N-methylamide]	3000 nM	4000 nM
